In patent publication US8470867B2, “Sigma receptor inhibitors” (Laboratorios Del Dr. Esteve, S.A., priority 2004, dated 2013):

biological target: T1, σ1-receptor (Cavia porcellus, UniProt Q60492); experiment: Sigma-1 receptor binding, [3H](+)-pentazocine, brain membranes; parameters: species or system guinea pig; conditions: not given
T1 construct: guinea pig brains were homogenized; from tissue; host or cells: guinea pig brain membranes
Description: Brain membrane preparation and binding assays for the σ1-receptor were performed as described (DeHaven-Hudkins et al., 1992) with some modifications. In brief, guinea pig brains were homogenized in 10 vols. (w/v) of Tris-HCl 50 mM 0.32 M sucrose, pH 7.4, with a Kinematica Polytron PT 3000 at 15000 r.p.m. for 30 s. The homogenate was centrifuged at 1000 g for […] at 4° C. and the supernatants collected and centrifuged again at 48000 g for 15 min at 4° C. The pellet was resuspended in 10 volumes of Tris-HCl buffer (50 mM, pH 7.4), incubated at 37° C. for 30 min, and centrifuged at 48000 g for 20 min at 4° C. Following this, the pellet was resuspended in fresh Tris-HCl buffer (50 mM, pH 7.4) and stored on ice until use.
Each assay tube contained 10 μL of [^3H](+)-pentazocine (final concentration of 0.5 nM), 900 μL of the tissue suspension to a final assay volume of 1 mL and a final tissue concentration of approximately 30 mg tissue net weight/mL. […] All tubes were incubated at 37° C. for 150 min before termination of the reaction by rapid filtration over Schleicher & Schuell GF 3362 glass fibre filters [previously soaked in a solution of 0.5% polyethylenimine for at least 1 h]. Filters were then washed with four times with 4 mL of cold Tris-HCl buffer (50 mM, pH 7.4). Following addition of scintillation cocktail, the samples were allowed to equilibrate overnight. The amount of bound radioactivity was determined by liquid scintillation spectrometry using a Wallac Winspectral 1414 liquid scintillation counter. Protein concentrations were determined by the method of Lowry et al. (1951).

T1 sequence (Q60492 whole entry): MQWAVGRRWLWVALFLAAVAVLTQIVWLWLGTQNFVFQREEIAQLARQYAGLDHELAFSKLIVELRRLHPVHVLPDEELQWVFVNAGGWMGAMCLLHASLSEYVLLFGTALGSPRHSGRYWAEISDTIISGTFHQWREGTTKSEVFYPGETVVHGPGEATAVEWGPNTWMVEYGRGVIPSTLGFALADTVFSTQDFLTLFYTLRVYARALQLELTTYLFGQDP

Ki [nM]	SMILES
4.1	CCN(CC)CCCCOc1cc(C)n(-c2ccc(Cl)c(Cl)c2)n1 [Example 27, 4-[1-(3,4-Dichlorophenyl)-5-methyl-1H-pyrazol-3-yloxy]-N,N-diethylbutan-1-amine]
8.6	CC(C)c1cc(OCCN2CCCCC2)nn1-c1ccc(Cl)c(Cl)c1 [Example 35, 1-{2-[1-(3,4-Dichlorophenyl)-5-isopropyl-4H-pyrazol-3-yloxy]ethyl}piperidine]

SMILES	Ki [nM]
Cc1cc(OCCCCN2CCCC2)nn1-c1ccc(Cl)c(Cl)c1 [Example 23, 1-(3,4-Dichlorophenyl)-5-methyl-3-[4-(pyrrolidin-1-yl)butoxy]-1H-pyrazole]	4.4

same assay, conditions: 10^−7 M

SMILES	inhibition at 0.1 µM [%]	% Binding σ1 [%]
Clc1ccc(-n2nc(OCCN3CCCCC3)cc2-c2ccccc2)cc1Cl [Example 19, 1-{2-[1-(3,4-Dichlorophenyl)-5-phenyl-1H-pyrazol-3-yloxy]ethyl}piperidine]	80.1	–
Cc1cc(OCCCCN2CCCC2)nn1-c1ccc(Cl)c(Cl)c1 [Example 23, 1-(3,4-Dichlorophenyl)-5-methyl-3-[4-(pyrrolidin-1-yl)butoxy]-1H-pyrazole]	96.4	–
COc1ccc(-n2nc(OCCCN3CCCC3)cc2C)cc1 [Example 13, 1-(4-Methoxyphenyl)-5-methyl-3-[3-(pyrrolidin-1-yl)propoxy]-1H-pyrazole]	50.9	–
Cc1cc(OCCN2CCN(C)CC2)nn1-c1ccc(Cl)c(Cl)c1 [Example 8, 1-{2-[1-(3,4-Dichlorophenyl)-5-methyl-1H-pyrazol-3-yloxy]ethyl}-4-methylpiperazine]	94.5	–
CCN(CC)CCCCOc1cc(C)n(-c2ccc(Cl)c(Cl)c2)n1 [Example 27, 4-[1-(3,4-Dichlorophenyl)-5-methyl-1H-pyrazol-3-yloxy]-N,N-diethylbutan-1-amine]	99.2	–
Clc1ccc(-n2nc(OCCCN3CCCC3)cc2-c2ccccc2)cc1Cl [Example 18, 1-(3,4-Dichlorophenyl)-5-phenyl-3-[3-(pyrrolidin-1-yl)propoxy]-1H-pyrazole]	58.6	–
COc1ccc(-n2nc(OCCN3CCCCC3)cc2C)cc1 [Example 14, 1-[2-(1-(4-Methoxyphenyl)-5-methyl-1H-pyrazol-3-yloxy)ethyl]piperidine]	48.9	–
CCOC(=O)N1CCN(CCOc2cc(C)n(-c3ccc(Cl)c(Cl)c3)n2)CC1 [Example 9, Ethyl 4-{2-[1-(3,4-dichlorophenyl)-5-methyl-1H-pyrazol-3-yloxy]ethyl}piperazine carboxylate]	99.5	–
Cc1cc(OCCCCN2CCc3ccccc3C2)nn1-c1ccc(Cl)c(Cl)c1 [Example 30, 2-{4-[1-(3,4-dichlorophenyl)-5-methyl-1H-pyrazol-3-yloxy]butyl}-1,2,3,4-tetrahydroisoquinoline]	83	–

The next lines start with the values.

inhibition at 0.1 µM [%]	% Binding σ1 [%]	SMILES
72.7	–	CCN(CC)CCOc1cc(C(C)C)n(-c2ccc(Cl)c(Cl)c2)n1 [Example 32, 2-[1-(3,4-Dichlorophenyl)-5-isopropyl-1H-pyrazol-3-yloxy]-N,N-diethylethanamine]
110	–	Clc1ccc(-n2ccc(OCCN3CCCCC3)n2)cc1Cl [Example 40, 1-{2-[1-(3,4-dichlorophenyl)-1H-pyrazol-3-yloxy]ethyl}piperidine]
69.2	–	CCN(CC)CCOc1cc(C)n(-c2ccc3ccccc3c2)n1 [Example 62, N,N-Diethyl-2-[5-methyl-1-(naphthalen-2-yl)-1H-pyrazol-3-yloxy]ethanamine]
108	–	CCN(CC)CCOc1ccn(-c2ccc(Cl)c(Cl)c2)n1 [Example 38, 2-[1-(3,4-dichlorophenyl)-1H-pyrazol-3-yloxy]N,N-diethylethanamine]
102	–	CC(C)c1cc(OCCN2CCCCC2)nn1-c1ccc(Cl)c(Cl)c1 [Example 35, 1-{2-[1-(3,4-Dichlorophenyl)-5-isopropyl-4H-pyrazol-3-yloxy]ethyl}piperidine]
108	–	Clc1ccc(-n2ccc(OCCN3CCOCC3)n2)cc1Cl [Example 37, 4-{2-[1-(3,4-dichlorophenyl)-1H-pyrazol-3-yloxy]ethyl}morpholine]
110	–	Clc1ccc(-n2ccc(OCCN3CCCC3)n2)cc1Cl [Example 39, 1-(3,4-dichlorophenyl)-3-[2-(pyrrolidin-1-yl)ethoxy]-1H-pyrazole]
–	93.6	Cc1cc(OCCN2CCOCC2)nn1-c1ccc2ccccc2c1 [Example 61, 4-{2-[5-Methyl-1-(naphthalen-2-yl)-1H-pyrazol-3-yloxy]ethyl}morpholine]
